Legend:
Assay type in all cases: in vivo
[1] = system: Scirpophaga incertulas; test: Test Example 1: control of Scirpophaga incertulas (dead hearts) in paddy field; details: for Percentage of control of S. incertulas: 43 days after transplantation; for Percentage of S. incertulas-caused dead hearts: applied once 10 days after transplantation, assessed 43 days after transplantation
Source text: (§1) Paddy rice plants were transplanted to an experimental paddy field (50 m^2, planted with 1250 paddy rice plants on average), and 10 days later, granules containing flubendiamide as an active ingredient were applied once at the predetermined doses. At 43 days after the transplantation, in 10 rice plants chosen at random, the percentage of Scirpophaga incertulas-caused dead hearts per plant, the percentage of control of Scirpophaga incertulas, the stem number per plant, and the percentage of increase in the stem number were measured. To exclude the positive effect of the insecticidal action of flubendiamide on the growth of paddy rice plants, chlorantraniliprole, which has an equivalent insecticidal action, was used as a control agrochemical.

[2] = system: paddy rice plants; test: Test Example 1: increase in stem number (promotion of tillering) of paddy rice plants; details: for Stem number/plant: 43 days after transplantation; for Percentage of increase in stem number: non-treatment = 100
Source text: as §1

[3] = system: germinating rice seeds (variety: Nihonbare); test: Test Example 2: rooting promotion and plant height growth in paddy rice plants (agar test); details: 25 ppm in 0.7% agar, 8 days after seeding
Protocol: A 0.7% agar solution containing 25 ppm of flubendiamide was poured into a glass cylinder (3 cm diameter×10 cm) and allowed to be solidified. Onto the solidified agar, ten germinating rice seeds (variety: Nihonbare) were sown. Then, the top of the cylinder was covered with Japanese paper and the cylinder was placed in a thermostatic chamber (light-dark cycle: 16 hours of light and 8 hours of dark, relative humidity: 60 to 70%) at 25° C. At 8 days after the seeding, the lengths of the longest root (primary root) and the stem-and-leaf part extending from each seed-rice were measured and the averages were calculated. The percentages of elongation were also calculated with the proviso that the non-treatment levels were set as 100.

[4] = system: rice plants (variety: Takanari); test: Test Example 3: yield increase (numbers of panicles and unhulled rice grains) of paddy rice plants; details: for Panicle number/plant / Unhulled rice grain number/plant: harvest at 100 days; for Percentage of increase (panicle number) / Percentage of increase (unhulled rice grain number): non-treatment = 100
Protocol: Rice plants (variety: Takanari) of the 6.5- to 7-leaf stage were transplanted to 1-m^2 plots of a paddy field, and 2 or 12 days later, flubendiamide granules were applied at the predetermined doses. The test was performed in 4 replications. At 100 days after the transplantation, the rice plants were harvested, the numbers of panicles and unhulled rice grains per plant were measured and the averages were calculated. The percentages of increase were also calculated with the proviso that the non-treatment levels were set as 100.

[5] = 35 g a.i./ha granules applied 2 days after transplantation
[6] = 35 g a.i./ha granules applied 12 days after transplantation
[7] = 35 g a.i./ha, applied 2 days after transplantation
[8] = 35 g a.i./ha, applied 12 days after transplantation
[9] = 70 g a.i./ha granules applied 2 days after transplantation
[10] = 70 g a.i./ha granules applied 12 days after transplantation
[11] = 70 g a.i./ha, applied 2 days after transplantation
[12] = 70 g a.i./ha, applied 12 days after transplantation
[13] = regardless of application time and dose

CNC(=O)c1cc(Cl)cc(C)c1NC(=O)c1cc(Br)nn1-c1ncccc1Cl [Chlorantraniliprole]
Percentage of control of S. incertulas ([1]; 40 g a.i./ha): 90.2% | Percentage of S. incertulas-caused dead hearts ([1]; 40 g a.i./ha): 0.37% | Stem number/plant ([2]; 40 g a.i./ha): 26.35 /plant | Percentage of increase in stem number ([2]; 40 g a.i./ha): 119% | Percentage of increase in stem number ([2]; 40 g a.i./ha, listed as chlorantraniliprole): about 120% | Increase in stem number per plant compared with the non-treatment level ([2]; chlorantraniliprole treatment plot (40 g a.i./ha)): about four

Cc1cc(C(F)(C(F)(F)F)C(F)(F)F)ccc1NC(=O)c1cccc(I)c1C(=O)NC(C)(C)CS(C)(=O)=O [Flubendiamide, 3-iodo-N′-(2-mesyl-1,1-dimethylethyl)-N-{4-[1,2,2,2-tetrafluoro-1-(trifluoromethyl)ethyl]-o-tolyl}phthalamide]
Average root length ([3]; 25° C.): 6.7 cm | Average stem-and-leaf length ([3]; 25° C.): 3.9 cm | Percentage of elongation in root length ([3]; non-treatment = 100): 160% | Percentage of elongation in stem-and-leaf length ([3]; non-treatment = 100): 170% | Percentage of S. incertulas-caused dead hearts ([1]; 70 g a.i./ha granules): 0.48% | Percentage of control of S. incertulas ([1]; 70 g a.i./ha): 87.3% | Percentage of S. incertulas-caused dead hearts ([1]; 90 g a.i./ha granules): 0.34% | Percentage of control of S. incertulas ([1]; 90 g a.i./ha): 91.0% | Percentage of S. incertulas-caused dead hearts ([1]; 120 g a.i./ha granules): 0.30% | Percentage of control of S. incertulas ([1]; 120 g a.i./ha): 92.1% | Stem number/plant ([2]; 70 g a.i./ha): 39.6 /plant | Percentage of increase in stem number ([2]; 70 g a.i./ha): 178% | Stem number/plant ([2]; 90 g a.i./ha): 38.0 /plant | Percentage of increase in stem number ([2]; 90 g a.i./ha): 171% | Stem number/plant ([2]; 120 g a.i./ha): 39.15 /plant | Percentage of increase in stem number ([2]; 120 g a.i./ha): 176% | Increase in stem number per plant compared with the non-treatment level ([2]; flubendiamide treatment plots, regardless of dose (70-120 g a.i./ha)): about 17 | Panicle number/plant [4, 5]: 10.4 /plant | Unhulled rice grain number/plant [4, 5]: 1360.3 /plant | Panicle number/plant [4, 6]: 11.9 /plant | Unhulled rice grain number/plant [4, 6]: 1528.0 /plant | Percentage of increase (panicle number) [4, 7]: 110% | Percentage of increase (unhulled rice grain number) [4, 7]: 110% | Percentage of increase (panicle number) [4, 8]: 126% | Percentage of increase (unhulled rice grain number) [4, 8]: 124% | Panicle number/plant [4, 9]: 11.2 /plant | Unhulled rice grain number/plant [4, 9]: 1484.0 /plant | Panicle number/plant [4, 10]: 12.5 /plant | Unhulled rice grain number/plant [4, 10]: 1600.0 /plant | Percentage of increase (panicle number) [4, 11]: 119% | Percentage of increase (unhulled rice grain number) [4, 11]: 120% | Percentage of increase (panicle number) [4, 12]: 132% | Percentage of increase (unhulled rice grain number) [4, 12]: 130% | Numbers of panicles versus non-treatment levels [4, 13]: significantly increased | Numbers of unhulled rice grains versus non-treatment levels [4, 13]: significantly increased
